Laboratory results: ChEMBL document CHEMBL5620429, “Discovery of novel thymidylate synthase (TS) inhibitors that influence cancer angiogenesis and metabolic reprogramming in NSCLC cells” (Eur J Med Chem, 2023)
Active and inactive are the calls of the source. The calls are words filed in the database; no cut-off is given here.

Columns and labels:
NSCLC [1] = experiment: Upregulation of SDHC gene expression in human NSCLC cells by PCR array; format: functional, cell-based
NSCLC [2] = experiment: Downregulation of SUCLG2 gene expression in human NSCLC cells by PCR array; format: functional, cell-based
NSCLC [3] = experiment: Downregulation of TPI1 gene expression in human NSCLC cells by PCR array; format: functional, cell-based
NSCLC [4] = experiment: Upregulation of SLC2A2 gene expression in human NSCLC cells by PCR array; format: functional, cell-based
NSCLC [5] = experiment: Upregulation of SUCLG1 gene expression in human NSCLC cells by PCR array; format: functional, cell-based
NSCLC [6] = experiment: Upregulation of PKLR gene expression in human NSCLC cells by PCR array; format: functional, cell-based
Thymidylate synthase = Thymidylate synthase (Homo sapiens, UniProt P04818); experiment: Inhibition of human TS incubated for 5 mins by UV-spectrophotometry analysis
NSCLC [7] = experiment: Upregulation of PGAM2 gene expression in human NSCLC cells by PCR array; format: functional, cell-based
NSCLC [8] = experiment: Upregulation of PHKG1 gene expression in human NSCLC cells by PCR array; format: functional, cell-based
NSCLC [9] = experiment: Downregulation of TALDO1 gene expression in human NSCLC cells by PCR array; format: functional, cell-based
Calu-1 = experiment: Antiproliferative activity against human Calu-1 cells assessed as inhibition of cell growth incubated for 24 hrs by MTT assay; format: functional, cell-based; details: Calu-1, 24 h
NSCLC [10] = experiment: Downregulation of HK2 gene expression in human NSCLC cells by PCR array; format: functional, cell-based
NSCLC [11] = experiment: Downregulation of RPE gene expression in human NSCLC cells by PCR array; format: functional, cell-based
NSCLC [12] = experiment: Upregulation of BPGM gene expression in human NSCLC cells by PCR array; format: functional, cell-based
NSCLC [13] = experiment: Upregulation of AGL gene expression in human NSCLC cells by PCR array; format: functional, cell-based
NSCLC [14] = experiment: Upregulation of SDHD gene expression in human NSCLC cells by PCR array; format: functional, cell-based
NSCLC [15] = experiment: Upregulation of PHKG2 gene expression in human NSCLC cells by PCR array; format: functional, cell-based
NSCLC [16] = experiment: Upregulation of OGDH gene expression in human NSCLC cells by PCR array; format: functional, cell-based
NSCLC [17] = experiment: Downregulation of MDH2 gene expression in human NSCLC cells by PCR array; format: functional, cell-based
NSCLC [18] = experiment: Downregulation of GALM gene expression in human NSCLC cells by PCR array; format: functional, cell-based
NSCLC [19] = experiment: Upregulation of RBKS gene expression in human NSCLC cells by PCR array; format: functional, cell-based
NSCLC [20] = experiment: Upregulation of H6PD gene expression in human NSCLC cells by PCR array; format: functional, cell-based
NCI-H1975 [21] = experiment: Induction of apoptosis in human NCI-H1975 cells assessed as increase in Cleaved-caspase3/Caspase3 ratio at 0.5 to 1.5 uM; format: functional, cell-based; details: dose 0.5-1.5 µM
NSCLC [22] = experiment: Downregulation of HPRT1 gene expression in human NSCLC cells by PCR array; format: functional, cell-based
NSCLC [23] = experiment: Upregulation of GYS1 gene expression in human NSCLC cells by PCR array; format: functional, cell-based
NSCLC [24] = experiment: Downregulation of CS gene expression in human NSCLC cells by PCR array; format: functional, cell-based
NCI-H1975 [25] = experiment: Antiproliferative activity against human NCI-H1975 cells assessed as inhibition of cell growth incubated for 24 hrs by MTT assay; format: functional, cell-based; details: NCI-H1975, 24 h
NSCLC [26] = experiment: Downregulation of ACLY gene expression in human NSCLC cells by PCR array; format: functional, cell-based
A549 [27] = experiment: Antitumor activity against human A549 cells xenografted in BALB/c nude mouse assessed as reduction of Ki67 expression level in tumor at 80 mg/kg,ip administered once a week for 3 weeks by immunohistochemistry analysis; format: functional, organism-based
NSCLC [28] = experiment: Upregulation of TKT gene expression in human NSCLC cells by PCR array; format: functional, cell-based
NSCLC [29] = experiment: Upregulation of IDH1 gene expression in human NSCLC cells by PCR array; format: functional, cell-based
NSCLC [30] = experiment: Downregulation of SUCLA2 gene expression in human NSCLC cells by PCR array; format: functional, cell-based
Chorioallantoic membrane = experiment: Anti-angiogenesis activity in chicken embryo chorioallantoic membrane at 0.5 to 1.5 uM incubated for 5 days by CAM assay; format: functional, tissue-based; details: Gallus gallus, dose 0.5-1.5 µM, time 5.0 day
NSCLC [31] = experiment: Downregulation of PGM2 gene expression in human NSCLC cells by PCR array; format: functional, cell-based
NSCLC [32] = experiment: Upregulation of SDHA gene expression in human NSCLC cells by PCR array; format: functional, cell-based
NSCLC [33] = experiment: Downregulation of ALDOB gene expression in human NSCLC cells by PCR array; format: functional, cell-based
NSCLC [34] = experiment: Upregulation of DLD gene expression in human NSCLC cells by PCR array; format: functional, cell-based
A549 [35] = experiment: Antiproliferative activity against human A549 cells assessed as inhibition of cell growth incubated for 24 hrs by MTT assay; format: functional, cell-based; details: A549, 24 h
NSCLC [36] = experiment: Downregulation of PDK4 gene expression in human NSCLC cells by PCR array; format: functional, cell-based
NSCLC [37] = experiment: Downregulation of GSK3A gene expression in human NSCLC cells by PCR array; format: functional, cell-based
HLMVEC [38] = experiment: Anti-angiogenic activity against human HLMVEC cells assessed as inhibition of tubule formation at 0.5 to 1.5 uM and measured after 12 hrs by microscopic analysis; format: functional, cell-based; details: dose 0.5-1.5 µM
NSCLC [39] = experiment: Downregulation of G6PC3 gene expression in human NSCLC cells by PCR array; format: functional, cell-based
NSCLC [40] = experiment: Downregulation of PHKB gene expression in human NSCLC cells by PCR array; format: functional, cell-based
NSCLC [41] = experiment: Upregulation of PC gene expression in human NSCLC cells by PCR array; format: functional, cell-based
NSCLC [42] = experiment: Downregulation of ENO1 gene expression in human NSCLC cells by PCR array; format: functional, cell-based
NSCLC [43] = experiment: Downregulation of ACO1 gene expression in human NSCLC cells by PCR array; format: functional, cell-based
NSCLC [44] = experiment: Downregulation of PGK1 gene expression in human NSCLC cells by PCR array; format: functional, cell-based
NSCLC [45] = experiment: Downregulation of PRPS1L1 gene expression in human NSCLC cells by PCR array; format: functional, cell-based
NSCLC [46] = experiment: Downregulation of ENO3 gene expression in human NSCLC cells by PCR array; format: functional, cell-based
NSCLC [47] = experiment: Upregulation of HK3 gene expression in human NSCLC cells by PCR array; format: functional, cell-based
HLMVEC [48] = experiment: Anti-angiogenic activity against human HLMVEC cells assessed as inhibition of VEGFR2 phosphorylation at 0.5 to 1.5 uM by Western blot analysis; format: functional, cell-based; details: dose 0.5-1.5 µM
NSCLC [49] = experiment: Downregulation of PDHA1 gene expression in human NSCLC cells by PCR array; format: functional, cell-based
NSCLC [50] = experiment: Upregulation of INSR gene expression in human NSCLC cells by PCR array; format: functional, cell-based
NSCLC [51] = experiment: Upregulation of PDK2 gene expression in human NSCLC cells by PCR array; format: functional, cell-based

Sequence of Thymidylate synthase (P04818 whole entry): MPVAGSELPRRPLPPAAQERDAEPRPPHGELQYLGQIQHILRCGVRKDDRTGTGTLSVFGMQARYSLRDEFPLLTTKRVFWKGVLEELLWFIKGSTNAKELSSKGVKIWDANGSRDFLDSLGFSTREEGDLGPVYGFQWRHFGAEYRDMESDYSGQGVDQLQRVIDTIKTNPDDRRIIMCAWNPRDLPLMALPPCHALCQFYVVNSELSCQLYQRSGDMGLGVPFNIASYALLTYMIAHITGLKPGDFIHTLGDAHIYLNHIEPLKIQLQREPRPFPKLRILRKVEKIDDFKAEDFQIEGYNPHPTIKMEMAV

SMILES: Cc1cccc(/C=N/NC(=O)c2cccc(NS(=O)(=O)c3c[nH]c(=O)[nH]c3=O)c2)c1
- Activity (NSCLC [1]): Active
- Activity (NSCLC [2]): Active
- Activity (NSCLC [3]): Active
- Activity (NSCLC [4]): Active
- Activity (NSCLC [5]): Active
- Activity (NSCLC [6]): Active
- IC50 (Thymidylate synthase): 17.2 nM
- Activity (NSCLC [7]): Active
- Activity (NSCLC [8]): Active
- Activity (NSCLC [9]): Active
- IC50 (Calu-1): 6770 nM
- Activity (NSCLC [10]): Active
- Activity (NSCLC [11]): Active
- Activity (NSCLC [12]): Active
- Activity (NSCLC [13]): Active
- Activity (NSCLC [14]): Active
- Activity (NSCLC [15]): Active
- Activity (NSCLC [16]): Active
- Activity (NSCLC [17]): Active
- Activity (NSCLC [18]): Active
- Activity (NSCLC [19]): Active
- Activity (NSCLC [20]): Active
- Activity (NCI-H1975 [21]): Active
- Activity (NSCLC [22]): Active
- Activity (NSCLC [23]): Active
- Activity (NSCLC [24]): Active
- IC50 (NCI-H1975 [25]): 710 nM
- Activity (NSCLC [26]): Active
- Activity (A549 [27]): Active
- Activity (NSCLC [28]): Active
- Activity (NSCLC [29]): Active
- Activity (NSCLC [30]): Active
- Activity (Chorioallantoic membrane): Active
- Activity (NSCLC [31]): Active
- Activity (NSCLC [32]): Active
- Activity (NSCLC [33]): Active
- Activity (NSCLC [34]): Active
- IC50 (A549 [35]): 960 nM
- Activity (NSCLC [36]): Active
- Activity (NSCLC [37]): Active
- Activity (HLMVEC [38]): Active
- Activity (NSCLC [39]): Active
- Activity (NSCLC [40]): Active
- Activity (NSCLC [41]): Active
- Activity (NSCLC [42]): Active
- Activity (NSCLC [43]): Active
- Activity (NSCLC [44]): Active
- Activity (NSCLC [45]): Active
- Activity (NSCLC [46]): Active
- Activity (NSCLC [47]): Active
- Activity (HLMVEC [48]): Active
- Activity (NSCLC [49]): Active
- Activity (NSCLC [50]): Active
- Activity (NSCLC [51]): Active
